Assay results reported in PMC9374667 (Communications Biology, 2022).
Values joined by “and” are separate entries in the source; they are usually repeats but may differ in a detail not shown here. Equal values may be shown once.

Columns and labels:
[1] = test system: IKKε, TBK1, p-TBK1, UCP1, p-AMPKα; test: Western blotting of eWAT; type: in vivo; settings: db/db mice
Method: The adipose tissue or 3T3-L1 adipocytes were homogenized by ultrasound in an ice‐cold RIPA lysis buffer containing 1% PMSF and centrifuged at 12,000 × g at 4°C for 15 min to collect the supernatant. The BCA protein assay kit (Beyotime, Shanghai, China) was used to detect the total protein concentration. Proteins (20-30 μg) of the sample were separated by 10% SDS-PAGE gel and transferred onto polyvinylidene difluoride (PVDF) membranes. Then the PVDF membranes were blocked in 5% skim milk powder in TBS containing 1% Tween-20 (TBST) for 2 h at room temperature and washed with TBST for 3 times. The membranes were incubated with the appropriate primary antibody, IKKε (1:1000 dilution), TBK1 (1:1000 dilution), p-TBK1 Ser172 (1:1000 dilution), p-AMPKα Thr172 (1:1000 dilution), UCP1 (1:1000 dilution), and GAPDH (1:1000 dilution) in the blocking buffer solution at 4 °C overnight. After washing, the membranes were incubated with horseradish peroxidase-conjugated secondary antibodies (in 5% skim milk powder) for 1 h at room temperature. Finally, the membranes were treated with enhanced chemiluminescence agents (Tanon, Shanghai, China) and the signals were monitored using the Tanon 5200 multi chemiluminescent imaging system (Tanon, Shanghai, China).

TBK1 = target: T1, TBK1 (Mus musculus, UniProt Q9WUN2); test: 3T3-L1 adipocytes transfected with TBK1 plasmid (western blotting, immunofluorescence); type: cell-based, Murine; design: host or cells: differentiated 3T3-L1 adipocytes (Lipofectamine 2000); TBK1 (western blotting, Figure 8a) / p-TBK1 (western blotting, Figure 8b) / p-AMPKα (western blotting, Figure 8c) / UCP1 (western blotting, Figure 8d): scale not given here; settings: for Mean Intensity: 2μg TBK1 + 10μM BJ, individual replicates
T1 sequence (Q9WUN2 1-729): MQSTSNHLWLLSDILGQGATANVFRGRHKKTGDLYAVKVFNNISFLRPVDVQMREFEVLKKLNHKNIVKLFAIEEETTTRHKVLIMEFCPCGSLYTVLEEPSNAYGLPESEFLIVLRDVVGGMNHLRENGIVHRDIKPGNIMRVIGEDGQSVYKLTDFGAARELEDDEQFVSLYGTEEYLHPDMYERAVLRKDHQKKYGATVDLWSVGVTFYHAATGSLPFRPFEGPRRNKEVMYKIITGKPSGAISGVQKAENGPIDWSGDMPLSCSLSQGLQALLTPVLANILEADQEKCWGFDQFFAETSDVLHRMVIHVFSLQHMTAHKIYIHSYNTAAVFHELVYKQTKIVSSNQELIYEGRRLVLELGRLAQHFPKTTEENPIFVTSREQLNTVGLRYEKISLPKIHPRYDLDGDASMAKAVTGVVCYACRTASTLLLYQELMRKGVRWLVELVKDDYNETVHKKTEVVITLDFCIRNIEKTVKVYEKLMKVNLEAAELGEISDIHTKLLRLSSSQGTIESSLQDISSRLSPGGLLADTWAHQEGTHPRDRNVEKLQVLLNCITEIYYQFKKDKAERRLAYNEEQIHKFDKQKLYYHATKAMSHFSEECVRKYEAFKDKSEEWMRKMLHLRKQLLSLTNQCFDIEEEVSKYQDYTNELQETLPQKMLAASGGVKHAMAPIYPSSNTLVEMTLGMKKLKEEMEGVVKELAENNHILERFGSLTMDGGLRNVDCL
Method: […] The 3T3-L1 adipocytes were washed with PBS for 3 times, fixed with 4% paraformaldehyde solution for 30 min, and then washed again for 3 times. […] The cells were then incubated overnight at 4 °C with the appropriate primary antibodies (1:100 dilution). The next day, the 3T3-L1 adipocytes were washed and incubated at room temperature with goat anti-rabbit secondary antibody or goat anti-mouse secondary antibody (1:1000 dilution) for 2 h and washed with PBS for 3 times. The nuclei were stained with DAPI. […] Fluorescence images were taken using a laser confocal microscope (SP8, Leica, Germany). At least four images per section were acquired for quantification, and the mean intensity were evaluated using ImageJ. The adipose tissue or 3T3-L1 adipocytes were homogenized by ultrasound in an ice-cold RIPA lysis buffer containing 1% PMSF and centrifuged at 12,000 × g at 4°C for 15 min to collect the supernatant. The BCA protein assay kit (Beyotime, Shanghai, China) was used to detect the total protein concentration. Proteins (20-30 μg) of the sample were separated by 10% SDS-PAGE gel and transferred onto polyvinylidene difluoride (PVDF) membranes. Then the PVDF membranes were blocked in 5% skim milk powder in TBS containing 1% Tween-20 (TBST) for 2 h at room temperature and washed with TBST for 3 times. […] After washing, the membranes were incubated with horseradish peroxidase-conjugated secondary antibodies (in 5% skim milk powder) for 1 h at room temperature. Finally, the membranes were treated with enhanced chemiluminescence agents (Tanon, Shanghai, China) and the signals were monitored using the Tanon 5200 multi chemiluminescent imaging system (Tanon, Shanghai, China).

[2] = 3T3-L1 adipocytes transfected with TBK1 plasmid, 10 μM BJ, vs TBK1 transfection

## CC(C)Cc1ccc(C(C)C(=O)[O-])cc1.COc1ccc2cc3[n+](cc2c1OC)CCc1cc2c(cc1-3)OCO2.O.O.O.O [BJ, berberine-ibuprofen]
[1]
  Expression of UCP1 and phosphorylation of TBK1 at Ser172 in eWAT: increased
[1]; both doses of BJ, western blotting
  Protein levels of IKKε and TBK1 in eWAT: significantly reduced
[1]; inhibited in db/db eWAT
  AMPKα Thr172 phosphorylation (p-AMPKα) in eWAT: restored
TBK1; 2μg TBK1+10μM BJ
  TBK1 (western blotting, Figure 8a): 0.5408 and 0.448 and 0.5761
  UCP1 (western blotting, Figure 8d): 0.7389 and 0.5561 and 0.5877
  p-AMPKα (western blotting, Figure 8c): 0.3928 and 0.3723 and 0.348
  p-TBK1 (western blotting, Figure 8b): 0.5922 and 0.4 and 0.4766
TBK1; 10μM BJ
  TBK1 (western blotting, Figure 8a): 0.38 and 0.387 and 0.3646
  UCP1 (western blotting, Figure 8d): 0.5655 and 0.6018 and 0.6331
  p-AMPKα (western blotting, Figure 8c): 0.4524 and 0.4108 and 0.3523
  p-TBK1 (western blotting, Figure 8b): 0.5028 and 0.4045 and 0.6995
TBK1; 3T3-L1 adipocytes transfected with TBK1 plasmid, 10 μM BJ
  Phosphorylation of TBK1 at Ser172: increased the phosphorylation of TBK1 at Ser172
TBK1; [2]
  Phosphorylation of AMPKα Thr172 and UCP1 protein levels: increased the phosphorylation of AMPKα Thr172 and increased the UCP1 protein levels
  TBK1 protein levels: markedly reduced the TBK1 protein levels
TBK1; Figure S11c
  Mean Intensity: 20.873 A.U. and 18.04 A.U. and 17.203 A.U. and 19.263 A.U. and 18.463 A.U. and 18.776 A.U. and 23.056 A.U. and 11.015 A.U. and 23.907 A.U. and 21.41 A.U. and 21.836 A.U. and 20.009 A.U.
TBK1; Figure S11g
  Mean Intensity: 11.659 A.U. and 7.08 A.U. and 13.692 A.U. and 12.377 A.U. and 10.165 A.U. and 17.942 A.U. and 13.51 A.U. and 14.616 A.U. and 14.87 A.U. and 10.529 A.U. and 9.155 A.U. and 10.462 A.U.
TBK1; Figure S11d
  Mean Intensity: 20.305 A.U. and 17.417 A.U. and 18.699 A.U. and 21.221 A.U. and 16.857 A.U. and 15.382 A.U. and 18.398 A.U. and 14.495 A.U. and 16.691 A.U. and 21.635 A.U. and 11.895 A.U. and 12.802 A.U.
TBK1; sheet Figure S11h
  Mean Intensity: 18.036 A.U. and 17.064 A.U. and 12.941 A.U. and 17.572 A.U. and 15.135 A.U. and 12.981 A.U. and 16.45 A.U. and 12.776 A.U. and 13.679 A.U. and 13.503 A.U. and 12.749 A.U. and 17.882 A.U.
